Reference: patent US7572798B2, “Combi-molecules having signal transduction inhibitory properties and DNA damaging properties” (McGill University, priority 2001, dated 2009)
Entries after “also recorded” stand apart in the source; their conditions may differ. Like-named read-outs stand apart in the source and are kept apart here.

Legend:
human c-src = molecular target: T1, human c-src (Homo sapiens, UniProt P12931); assay: c-src kinase ELISA; type: biochemical; conditions: 1-100 μM range
T1 construct: purchased Upstate NY; host or cells: Baculovirus expression
Procedure: (§1) Conditions for the c-src and insulin kinase assays were similar to those of the EGFR kinase assay, with the exception of the addition of 1 mM manganese chloride to the assay buffer, and a final ATP concentration of 100 μM. The reaction was terminated by the addition of 50 μl of a 250 mM solution of EDTA prior to aspiration.

[1] = molecular target: T2, cytoplasmic domain of the insulin receptor β subunit (Homo sapiens, UniProt P06213); assay: insulin receptor kinase ELISA; type: biochemical; conditions: 1-100 μM range
T2 construct: Baculovirus-expressed cytoplasmic domain of the insulin receptor β subunit; purchased Biomol Research laboratories Inc., USA; host or cells: Baculovirus expression
Procedure: as §1

A431 cells = assay: SRB growth inhibition assay in A431 cells; type: cell-based, human; conditions: for IC50: Homo sapiens
Procedure: All growth inhibitory activities were evaluated using the SRB assay (33). Briefly, following drug treatment, cells were fixed using 50 μL of cold trichloroacetic acid (50%) for 60 min at 4° C., washed five times with tap water, and stained for 30 min at room temperature with SRB (0.4%) dissolved in acetic acid (0.5%). The plates were rinsed five times with 1% acetic acid and allowed to air dry. The resulting colored residue was dissolved in 200 μL of Tris base (10 mM), and the optical density read for each well at 540 nm using a Bio-Rad microplate reader (model 2550). […]
Cell monolayers were continuously exposed to different concentrations of each drug for 72 h. Under short exposure, they were treated with each drug for 2 h and allowed to recover for 72 h in drug-free medium.
To study the reversibility of the antiproliferative effects of our compounds, cells were grown to 70% confluence in 96-well plates and subsequently washed twice with PBS, after which they were exposed to serum-free medium for 18 h. Under continuous exposure, the cells were exposed to different concentrations of each drug for 120 h. Under short exposure, they were exposed to each drug for 2 h, after which they were allowed to recover for 120 h in drug free medium. Growth inhibitory activities were evaluated using the SRB assay as described above.

[2] = test system: NIH3T3 and NIH3T3HER14 cells; assay: Alkaline comet assay in isogenic pair NIH3T3 / NIH3T3HER14; type: cell-based, mouse; conditions: NIH3T3HER14 versus NIH3T3, 30 min
Procedure: The alkaline comet assay was performed as previously described (26). […] Cell suspensions were diluted to approximately 10^6 cells, and mixed with agarose (1%) in PBS at 37° C. in a 1:10 dilution. The gels were cast on Gelbond strips (Mandel Scientific, Guelph, Canada) using gel casting chambers, as previously described (31), and then immediately placed in a lysis buffer [2.5 M NaCl, 0.1 M tetra-sodium EDTA, 10 mM Tris-base, 1% (w/v) N-lauryl sarcosine, 10% (v/v) DMSO, and 1% (v/v) Triton X-100, pH 10.0]. After being kept on ice for 30 min, the gels were gently rinsed with distilled water and immersed in a second lysis buffer (2.5 M NaCl, 0.1 M tetrasodium EDTA, 10 mM Tris-base) containing 1 mg/ml proteinase K for 60 min at 37° C. Thereafter, the gels were rinsed with distilled water, incubated in alkaline electrophoresis buffer for 30 min at 37° C., and electrophoresed at 300 mA for 60 min. […] Comets were visualized at 330× magnification and DNA damage was quantitated using the Tail Moment parameter (i.e., the distance between the barycenter of the head and the tail of the comet multiplied by the percentage of DNA within the tail of the comet). A minimum of 50 cell comets were analyzed for each sample, using ALKOMET version 3.1 image analysis software, and values are averages of tail moments for the entire cell population per sample.

[3] = Degradation in serum-containing cell culture medium (UV, HPLC); type: in vitro ADME; conditions: bovine, 37° C.
Procedure: Thereafter, proteins were precipitated by the addition of acetonitrile (3.5 ml) and the supernatant collected by centrifugation. […] The operating mode was isocratic and two solutions, “A” (50% acetonitrile) and “B” (50% water), were used with a 0.5 ml/min flow rate and a 5 μL injection volume. […] For the rapid quantitation of metabolite, a less polar acetonitrile-water (70:30) eluent was used.
The half-life was estimated by a one-phase exponential decay curve-fit method using the GraphPad software package (GraphPad Software, Inc., San Diego, Calif.).
The half-life of BJ2000 under physiological conditions was studied by UV-spectrophotometry. BJ2000 was dissolved in a minimum volume of DMSO, diluted with RPMI-1640 supplemented with 10% FBS, and absorbencies read at 340 nm in a UV cell maintained at 37° C. with a circulating water bath. The half-life was estimated by a one-phase exponential decay curve-fit method, using the GraphPad software package (GraphPad software, Inc., San Diego, Calif., USA).
Proteins were thereafter precipitated by the addition of acetonitrile (3.5 ml), and the supernatant collected by centrifugation. […] HPLC analyses were performed on a Hewlett Packard 1090 liquid chromatograph, using a Waters C4 15-μm 300×3.9-mm reverse phase column to characterize and quantitate the products resulting from the degradation of BJ2000. […] The peaks were detected at 250 nm.

MAPK = assay: EGF-induced MAPK phosphorylation in A431 cells (Western blot); type: cell-based, human; conditions: A431, at concentrations as low as 1 μM
Procedure: For the inhibition study of mitogen-activated protein kinase (MAPK) activation by BJ2000, protein lysates were obtained as described above and a Western blot was performed (39). The membrane was incubated with anti-phosphorylated MAPK antibodies or antibodies specific for MAPK (Cell Signaling, Beverly, Mass., USA).

NIH3T3HER14 cells = assay: Growth factor-stimulated proliferation in NIH3T3HER14 cells (SRB); type: cell-based, mouse
Procedure: To study the effect of our compounds on growth factors stimulated proliferation, cells were grown to 70% confluence in 48-well plates and washed twice with PBS, after which they were exposed to serum-free medium for 18 h. The cells were then exposed to each drug and growth factors (EGF, TGFα, PDGF or serum) for 72 h and cell growth measured using the sulforhodamine B (SRB) assay (33). Briefly, following drug treatment, cells were fixed using 50 μl of cold trichloroacetic acid (50%) for 60 min at 4° C., washed five times with tap water, and stained for 30 min at room temperature with SRB (0.4%) dissolved in acetic acid (0.5%). The plates were rinsed five times with 1% acetic acid and allowed to air dry. […] Each point represents the average of at least two independent experiments run in triplicate.

[4] = molecular target: T3, HER2 (erbB2) gene product p185neu (Homo sapiens, UniProt P04626); assay: Heregulin-stimulated phosphorylation of p185neu in MDA-MB453 cells; type: cell-based
T3 construct: heregulin (HRG)-stimulated phosphorylation of the HER2 (erbB2) gene product; endogenous in cells

EGFR = EGFR (Homo sapiens, UniProt P00533); assay: EGF-induced EGFR autophosphorylation in A431 cells (Western blot)
Chain of EGFR (P00533 25-1210): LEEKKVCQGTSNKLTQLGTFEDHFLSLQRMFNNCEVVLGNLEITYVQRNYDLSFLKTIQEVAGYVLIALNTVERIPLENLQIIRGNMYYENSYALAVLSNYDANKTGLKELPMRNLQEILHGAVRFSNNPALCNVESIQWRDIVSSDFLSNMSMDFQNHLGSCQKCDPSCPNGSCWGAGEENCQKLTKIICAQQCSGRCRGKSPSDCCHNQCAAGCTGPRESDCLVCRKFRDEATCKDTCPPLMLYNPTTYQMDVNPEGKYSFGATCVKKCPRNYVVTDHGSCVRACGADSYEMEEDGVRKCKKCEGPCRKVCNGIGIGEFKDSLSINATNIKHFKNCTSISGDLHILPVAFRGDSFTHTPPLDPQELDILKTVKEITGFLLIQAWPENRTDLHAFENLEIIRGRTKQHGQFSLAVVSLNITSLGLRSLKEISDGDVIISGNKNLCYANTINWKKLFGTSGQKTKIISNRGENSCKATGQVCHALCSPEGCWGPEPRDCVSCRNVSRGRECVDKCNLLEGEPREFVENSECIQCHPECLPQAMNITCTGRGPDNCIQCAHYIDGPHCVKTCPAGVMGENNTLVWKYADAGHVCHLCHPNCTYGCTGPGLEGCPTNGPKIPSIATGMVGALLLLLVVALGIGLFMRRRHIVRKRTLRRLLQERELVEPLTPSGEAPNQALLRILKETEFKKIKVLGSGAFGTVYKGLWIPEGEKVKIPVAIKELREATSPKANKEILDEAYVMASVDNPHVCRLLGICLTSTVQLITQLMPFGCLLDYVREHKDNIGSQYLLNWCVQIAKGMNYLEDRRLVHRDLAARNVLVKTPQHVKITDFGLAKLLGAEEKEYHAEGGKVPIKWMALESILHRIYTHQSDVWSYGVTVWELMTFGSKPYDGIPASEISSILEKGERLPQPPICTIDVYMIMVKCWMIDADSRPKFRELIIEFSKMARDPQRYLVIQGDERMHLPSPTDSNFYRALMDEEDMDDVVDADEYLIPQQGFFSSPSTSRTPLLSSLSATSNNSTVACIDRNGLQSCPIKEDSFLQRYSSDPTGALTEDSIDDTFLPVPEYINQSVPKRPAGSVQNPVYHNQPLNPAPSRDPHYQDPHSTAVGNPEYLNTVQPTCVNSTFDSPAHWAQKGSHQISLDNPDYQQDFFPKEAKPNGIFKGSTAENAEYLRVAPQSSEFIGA
Procedure: The inhibition of receptor autophosphorylation in viable cells was determined by anti-phosphotyrosine Western Blots. A431 cells were pre-incubated overnight for 24 h at 37° C. in a 6-well plate (1×10^6) with 0.1% serum, after which they were exposed to a range of doses for each drug for 2 h and subsequently treated with 50 ng/mL EGF for 30 min at 37° C. The cells were thereafter washed with PBS and re-suspended in cold lysis buffer [50 mM Tris-HCl pH 7.5; 150 mM NaCl; 1% NP40, 1 mM EDTA; 5 mM NaF; 1 mM Na3VO4; protease inhibitor tablet (Roche Biochemicals, Laval, Canada)]. The lysates were kept on ice for 30 min and collected by centrifugation at 10 000 rpm for 20 min at 4° C. The protein concentrations were determined against a standardized control using the Bio-Rad protein assay kit (Bio-Rad Laboratories, Hercules, Calif.). […] Non-specific binding on the PVDF membrane was minimized with a blocking buffer containing nonfat dry milk (3%) in PBS. The membrane was blotted with primary antibodies [either antiphosphotyrosine antibody (UBI, Lake Placid, N.Y.) for the detection of phosphotyrosine, or anti-EGFR (Neomarkers, Fremont, Calif.) for the determination of corresponding receptor levels], and anti-β-tubulin (Neomarkers, Fremont, Calif.) for the detection of equal loading. Thereafter, blots were incubated with HRP-goat anti-mouse antibody (1:200 dilution; Bio-Rad Laboratories, Hercules, Calif.) and the bands visualized with an enhanced chemiluminescence system (Amersham Pharmacia Biotech, Buckinghamshire, UK). Band intensities were measured using the SynGene GeneTools software package (Cambridge, UK).
The inhibition of receptor autophosphorylation in viable cells was determined by anti-phosphotyrosine Western Blots. […] Protein concentrations were determined against a standardized control using the Bio-Rad protein assay kit (Bio-Rad Laboratories, Hercules, Calif.). […] Band intensities were measured using the SynGene GeneTools software package (Cambridge, UK).

T1 sequence (P12931 whole entry): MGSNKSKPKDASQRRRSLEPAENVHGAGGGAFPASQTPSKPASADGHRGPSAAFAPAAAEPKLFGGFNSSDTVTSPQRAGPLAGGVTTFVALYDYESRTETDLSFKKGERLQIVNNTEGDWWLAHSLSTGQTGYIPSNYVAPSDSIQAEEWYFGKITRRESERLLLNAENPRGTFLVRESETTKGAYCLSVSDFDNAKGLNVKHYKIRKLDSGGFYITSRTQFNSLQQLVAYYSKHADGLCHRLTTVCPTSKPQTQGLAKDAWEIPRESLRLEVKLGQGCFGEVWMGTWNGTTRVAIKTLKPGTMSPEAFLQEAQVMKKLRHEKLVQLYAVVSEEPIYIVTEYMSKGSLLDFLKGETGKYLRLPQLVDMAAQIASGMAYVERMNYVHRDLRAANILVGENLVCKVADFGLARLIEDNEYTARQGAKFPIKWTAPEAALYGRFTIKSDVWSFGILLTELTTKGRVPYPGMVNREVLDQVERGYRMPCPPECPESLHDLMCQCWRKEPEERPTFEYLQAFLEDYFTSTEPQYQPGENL
T3 sequence (P04626 23-1255): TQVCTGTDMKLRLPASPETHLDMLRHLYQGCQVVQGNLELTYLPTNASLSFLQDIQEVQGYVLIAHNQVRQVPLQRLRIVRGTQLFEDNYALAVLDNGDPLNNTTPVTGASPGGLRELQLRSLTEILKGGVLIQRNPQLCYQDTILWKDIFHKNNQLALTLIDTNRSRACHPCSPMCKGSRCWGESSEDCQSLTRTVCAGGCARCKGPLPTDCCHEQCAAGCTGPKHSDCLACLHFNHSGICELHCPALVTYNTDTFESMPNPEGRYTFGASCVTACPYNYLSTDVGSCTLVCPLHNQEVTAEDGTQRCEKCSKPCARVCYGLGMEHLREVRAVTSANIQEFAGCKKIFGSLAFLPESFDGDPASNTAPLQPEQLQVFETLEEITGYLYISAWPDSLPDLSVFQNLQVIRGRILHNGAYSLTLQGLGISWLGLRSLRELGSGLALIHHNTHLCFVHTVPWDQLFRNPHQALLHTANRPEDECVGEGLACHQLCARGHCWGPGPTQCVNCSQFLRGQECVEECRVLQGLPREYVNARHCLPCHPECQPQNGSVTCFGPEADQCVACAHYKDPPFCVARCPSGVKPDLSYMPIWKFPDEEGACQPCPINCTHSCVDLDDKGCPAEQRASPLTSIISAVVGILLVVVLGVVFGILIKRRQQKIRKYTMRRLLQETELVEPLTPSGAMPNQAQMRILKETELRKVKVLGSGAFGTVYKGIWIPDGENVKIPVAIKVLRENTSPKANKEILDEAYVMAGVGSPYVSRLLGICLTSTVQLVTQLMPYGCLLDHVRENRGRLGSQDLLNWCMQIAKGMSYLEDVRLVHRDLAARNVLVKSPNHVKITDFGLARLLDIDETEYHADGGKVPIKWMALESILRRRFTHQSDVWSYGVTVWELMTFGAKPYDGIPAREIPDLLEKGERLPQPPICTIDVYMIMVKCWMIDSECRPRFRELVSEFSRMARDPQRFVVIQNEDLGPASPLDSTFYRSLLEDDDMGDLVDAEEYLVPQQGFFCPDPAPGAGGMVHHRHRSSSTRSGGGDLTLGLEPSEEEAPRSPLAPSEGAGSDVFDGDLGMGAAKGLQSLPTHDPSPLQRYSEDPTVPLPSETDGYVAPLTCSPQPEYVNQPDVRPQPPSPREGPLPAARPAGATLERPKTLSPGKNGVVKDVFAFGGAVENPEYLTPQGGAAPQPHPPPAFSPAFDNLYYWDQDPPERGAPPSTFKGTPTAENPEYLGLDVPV
T2 sequence (P06213 980-1382 limits assumed): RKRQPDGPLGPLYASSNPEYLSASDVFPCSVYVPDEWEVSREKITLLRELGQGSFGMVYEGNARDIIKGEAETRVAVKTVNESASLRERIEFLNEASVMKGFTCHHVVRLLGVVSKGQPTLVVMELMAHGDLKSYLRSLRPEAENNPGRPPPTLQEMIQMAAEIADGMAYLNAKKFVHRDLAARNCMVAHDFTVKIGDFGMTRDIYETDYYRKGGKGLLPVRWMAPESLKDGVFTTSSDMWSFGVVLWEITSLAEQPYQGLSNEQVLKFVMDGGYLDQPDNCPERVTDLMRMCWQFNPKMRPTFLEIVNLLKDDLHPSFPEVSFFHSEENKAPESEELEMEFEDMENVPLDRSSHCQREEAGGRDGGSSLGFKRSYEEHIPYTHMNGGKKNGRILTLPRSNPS

CNN=Nc1ccc2ncnc(Nc3cccc(Cl)c3)c2c1 [BJ2000]
effect on c-src TK activity (human c-src): did not block c-src TK activity | effect on insulin receptor TK [1]: nor did it exert any effect on insulin receptor TK | fold more potent than metabolite FD105 (A431 cells; 120 h continuous, SRB, A431): ≈ 3 fold | IC50 (A431 cells; A-431, 120 h, read-out: IC50 growth inhibition): 15 µM | IC50 (A431 cells; A-431, read-out: IC50 growth inhibition): 38 µM | fold higher levels of DNA damage in the EGFR transfectant [2]: more than 2 fold | half-life ([3]; serum-containing cell culture medium (RPMI with 10% serum), RPMI with 10% serum, read-out: half-life (t1/2) by UV spectrophotometry at 340 nm): 34 min | half-life at 625 µM ([3]; RPMI-1640 with 10% FBS, read-out: half-life (t1/2) by HPLC analysis): 75 min | inhibition of EGF-induced MAPK phosphorylation (MAPK): complete inhibition; also recorded: block MAPK phosphorylation | concentration giving 100% growth inhibition (NIH3T3HER14 cells; EGF or TGFα-induced proliferation, NIH3T3HER14, 72 h): 1 µM | concentration giving 100% inhibition (NIH3T3HER14 cells; PDGF-stimulated growth, NIH3T3HER14, 72 h): approximately 30 μM | fold less effective in inhibiting PDGF-stimulated growth (NIH3T3HER14 cells; versus EGF or TGFα-induced proliferation, NIH3T3HER14): approximately 30 fold | effect on heregulin (HRG)-stimulated phosphorylation of p185neu [4]: able to block | IC50 (EGFR): ~6 µM
